Laboratory results taken from PMC9343605, “Structural insights into ligand recognition and selectivity of somatostatin receptors” (Cell Research, 2022).

Experiments:
SSTR2 [1] = target: T1, SSTR2 (Homo sapiens, UniProt P30874, F208A); test: cAMP accumulation assay (agonist-induced inhibition of forskolin-stimulated cAMP), SSTR2, HEK293F; type: cell-based; conditions: HEK293F; SSTR2 mutant F208^5.38A; mean ± SEM; read-out: Span;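 note: transiently transfected cells exposed to 2 µM forskolin and a ligand concentration series for 40 min at room temperature in IBMX-containing HBSS, then cAMP quantified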
T1 construct: expressed in transfected cells; host or cells: HEK293F
Experimental: (§1) HEK293F cells were transiently transfected with WT or mutant SSTR2/SSTR4 using transfection reagent (PEI MAX 2000, Polysciences) and incubated at 37 °C in 5% CO2. Forty-eight hours after transfection, cells were centrifuged and resuspended in stimulation buffer (Hanks’ balanced salt solution (HBSS) supplemented with 5 mM HEPES, 0.5 mM IBMX and 0.1% (w/v) bovine serum albumin (BSA), pH 7.4) to a density of 200,000 cells/mL and added to 384-well white plates (PerkinElmer, 1000 cells/well). cAMP accumulation was measured by a LANCE Ultra cAMP kit (PerkinElmer) according to the manufacturer’s instructions. In brief, transfected cells were incubated for 40 min in stimulation buffer with 2.5 μL forskolin (SSTR2: 2 μM; SSTR4: 4 μM) and gradient concentration of ligand at RT. The reactions were stopped by addition of lysis buffer containing 5 μL Eu-cAMP tracer and 5 μL ULight-anti-cAMP. Plates were then incubated for 60 min at RT and time-resolved FRET signals were measured at 620 nm and 665 nm by an EnVision multilabel plate reader (PerkinElmer). Data were analyzed in GraphPad PRISM 8 and all values were normalized to the WT for each ligand. All outcomes were repeated at least three times.
(§2) aMutants represent that mutations were introduced separately into the WT receptors and
(§3) transiently expressed in HEK 293F cells.
(§4) bThe EC50 ratio was shown as EC50(mutant)/EC50(WT), indicating the shift between the WT
(§5) and mutant curves, reflecting the effect of the mutations on receptor signaling.
(§6) cData are shown as mean ± S.E.M. from at least three independent experiments
(§7) performed in technical triplicate. One-way ANOVA was performed followed by
(§8) Dunnett’s post-test and compared with WT. The P value was defined as: *P<0.05;
(§9) d The span is defined as the window between the maximal agonists response (Emax) and
(§10) e Sample size; the number of independent experiments performed in technical triplicate.
(§11) f Receptor expression level of HEK 293F cells was determined independently by flow
(§12) cytometry with anti-FLAG antibody and shown as per cent compared to the WT.

SSTR2 [2] = target: T2, SSTR2 (Homo sapiens, UniProt P30874, F294N); test: as above; type: cell-based; conditions: HEK293F; SSTR2 mutant F294^7.35N; mean ± SEM; read-out: Span
T2 construct: expressed in transfected cells; host or cells: HEK293F
Experimental: as §1, §2, §3, §4, §5, §6, §7, §8, §9, §10, §11, §12

SSTR2 [3] = target: T3, SSTR2 (Homo sapiens, UniProt P30874, I284A); test: as above; type: cell-based; conditions: HEK293F; SSTR2 mutant I284^ECL3A; mean ± SEM; read-out: Span
T3 construct: expressed in transfected cells; host or cells: HEK293F
Experimental: as §1, §2, §3, §4, §5, §6, §7, §8, §9, §10, §11, §12

SSTR2 [4] = target: T4, SSTR2 (Homo sapiens, UniProt P30874, K291A); test: as above; type: cell-based; conditions: HEK293F; SSTR2 mutant K291^7.32A; mean ± SEM; read-out: Span
T4 construct: expressed in transfected cells; host or cells: HEK293F
Experimental: as §1, §2, §3, §4, §5, §6, §7, §8, §9, §10, §11, §12

SSTR2 [5] = target: T5, SSTR2 (Homo sapiens, UniProt P30874, N276A); test: as above; type: cell-based; conditions: HEK293F; SSTR2 mutant N276^6.55A; mean ± SEM; read-out: Span
T5 construct: expressed in transfected cells; host or cells: HEK293F
Experimental: as §1, §2, §3, §4, §5, §6, §7, §8, §9, §10, §11, §12

SSTR2 [6] = target: T6, SSTR2 (Homo sapiens, UniProt P30874, P286A); test: as above; type: cell-based; conditions: HEK293F; SSTR2 mutant P286^ECL3A; mean ± SEM; read-out: Span
T6 construct: expressed in transfected cells; host or cells: HEK293F
Experimental: as §1, §2, §3, §4, §5, §6, §7, §8, §9, §10, §11, §12

SSTR2 [7] = target: T7, SSTR2 (Homo sapiens, UniProt P30874, S192A); test: as above; type: cell-based; conditions: HEK293F; SSTR2 mutant S192^ECL2A; mean ± SEM; read-out: Span
T7 construct: expressed in transfected cells; host or cells: HEK293F
Experimental: as §1, §2, §3, §4, §5, §6, §7, §8, §9, §10, §11, §12

SSTR2 [8] = target: T8, SSTR2 (Homo sapiens, UniProt P30874, V298A); test: as above; type: cell-based; conditions: HEK293F; SSTR2 mutant V298^7.39A; mean ± SEM; read-out: Span
T8 construct: expressed in transfected cells; host or cells: HEK293F
Experimental: as §1, §2, §3, §4, §5, §6, §7, §8, §9, §10, §11, §12

SSTR2 [9] = target: T9, SSTR2 (Homo sapiens, UniProt P30874, Y205W); test: as above; type: cell-based; conditions: HEK293F; SSTR2 mutant Y205^5.35W; mean ± SEM; read-out: Span
T9 construct: expressed in transfected cells; host or cells: HEK293F
Experimental: as §1, §2, §3, §4, §5, §6, §7, §8, §9, §10, §11, §12

SSTR2 [10] = target: T10, SSTR2 (Homo sapiens, UniProt P30874); test: as above; type: cell-based; set-up: expressed in transfected cells; host or cells: HEK293F; conditions: HEK293F; WT SSTR2; window between Emax and vehicle; mean ± SEM; read-out: Span
Experimental: as §1, §2, §3, §4, §5, §6, §7, §8, §9, §10, §11, §12

SSTR2 [11] = target: T11, SSTR2 (Homo sapiens, UniProt P30874, D122A); test: as above; type: cell-based; set-up: expressed in transfected cells; host or cells: HEK293F; conditions: HEK293F; SSTR2 mutant D122^3.32A; mean ± SEM; read-out: Span
Experimental: as §1, §2, §3, §4, §5, §6, §7, §8, §9, §10, §11, §12

SSTR2 [12] = target: T12, SSTR2 (Homo sapiens, UniProt P30874, F272A); test: as above; type: cell-based; set-up: expressed in transfected cells; host or cells: HEK293F; conditions: HEK293F; SSTR2 mutant F272^6.51A; mean ± SEM; read-out: Span
Experimental: as §1, §2, §3, §4, §5, §6, §7, §8, §9, §10, §11, §12

SSTR2 [13] = target: T13, SSTR2 (Homo sapiens, UniProt P30874, F294A); test: as above; type: cell-based; set-up: expressed in transfected cells; host or cells: HEK293F; conditions: HEK293F; SSTR2 mutant F294^7.35A; mean ± SEM; read-out: Span
Experimental: as §1, §2, §3, §4, §5, §6, §7, §8, §9, §10, §11, §12

SSTR2 [14] = target: T14, SSTR2 (Homo sapiens, UniProt P30874, Q102A); test: as above; type: cell-based; set-up: expressed in transfected cells; host or cells: HEK293F; conditions: HEK293F; SSTR2 mutant Q102^2.63A; mean ± SEM; read-out: Span
Experimental: as §1, §2, §3, §4, §5, §6, §7, §8, §9, §10, §11, §12

SSTR2 [15] = target: T15, SSTR2 (Homo sapiens, UniProt P30874, Q126A); test: as above; type: cell-based; set-up: expressed in transfected cells; host or cells: HEK293F; conditions: HEK293F; SSTR2 mutant Q126^3.36A; mean ± SEM; read-out: Span
Experimental: as §1, §2, §3, §4, §5, §6, §7, §8, §9, §10, §11, §12

SSTR2 [16] = target: SSTR2 (Homo sapiens, UniProt P30874, T194A); test: as above; type: cell-based; set-up: expressed in transfected cells; host or cells: HEK293F; conditions: HEK293F; SSTR2 mutant T194^ECL2A; mean ± SEM; read-out: Span
Experimental: as §1, §2, §3, §4, §5, §6, §7, §8, §9, §10, §11, §12

SSTR2 [17] = target: SSTR2 (Homo sapiens, UniProt P30874, T212A); test: as above; type: cell-based; set-up: expressed in transfected cells; host or cells: HEK293F; conditions: HEK293F; SSTR2 mutant T212^5.42A; mean ± SEM; read-out: Span
Experimental: as §1, §2, §3, §4, §5, §6, §7, §8, §9, §10, §11, §12

SSTR2 [18] = target: T16, SSTR2 (Homo sapiens, UniProt P30874, Y302A); test: as above; type: cell-based; set-up: expressed in transfected cells; host or cells: HEK293F; conditions: HEK293F; SSTR2 mutant Y302^7.43A; mean ± SEM; read-out: Span
Experimental: as §1, §2, §3, §4, §5, §6, §7, §8, §9, §10, §11, §12

SSTR2 [19] = target: T10, SSTR2; test: Whole cell binding assay, SSTR2, competition with 125I-Tyr11-SST14, CHO-K1; conditions: for Emax: CHO-K1, read-out: Span;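 for all read-outs here: Cell-bound radioactivity in lysed CHO-K1 cells read by scintillation counting, each mutation introduced singly into the WT receptor, at least three independent experiments run in technical triplicate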
Experimental: (§13) For SSTR2 and SSTR4, CHO-K1 cells were cultured in F12 medium with 10% FBS and seeded at a density of 30,000 cells/well in Isoplate-96 plates (PerkinElmer). Twenty-four hours after transfection with the WT or mutant SSTR2/SSTR4, CHO-K1 cells were washed twice and incubated with blocking buffer (F12 supplemented with 25 mM HEPES and 0.1% (w/v) BSA, pH 7.4) for 2 h at 37 °C. […] Following incubation, cells were washed three times with ice-cold PBS and lysed by 50 μL lysis buffer (PBS supplemented with 20 mM Tris-HCl, 1% Triton X-100, pH 7.4). The radioactivity was subsequently counted (counts/min, CPM) in a scintillation counter (MicroBeta[2] Plate Counter, PerkinElmer) using a scintillation cocktail (OptiPhaseSuperMix, PerkinElmer). Data were analyzed by nonlinear regression using GraphPad PRISM 8.
(§14) aMutants represent that all mutations were introduced separately into the WT receptors
and expressed in CHO K1 cells.
(§15) bThe IC50 ratio was shown as IC50(mutant)/IC50(WT), indicating the shift between the WT
(§16) and mutant curves, reflecting the effect of the mutations on ligand binding.
(§17) cData are shown as mean ± S.E.M. form at least three independent experiments
as §7
(§18) Dunnett’s post-test and compared with WT.
as §9, §10

SSTR2 [20] = target: T11, SSTR2; test: as above; conditions: CHO-K1, read-out: Span
Experimental: as §13, §14
and expressed in CHO K1 cells.
as §15, §16, §17, §7, §18, §9, §10

SSTR2 [21] = target: T12, SSTR2; test: as above; conditions: for Emax: CHO-K1, read-out: Span
Experimental: as §13, §14
and expressed in CHO K1 cells.
as §15, §16, §17, §7, §18, §9, §10

SSTR2 [22] = target: SSTR2 (Homo sapiens, UniProt P30874, F275A); test: as above; conditions: for Emax: CHO-K1, read-out: Span
Experimental: as §13, §14
and expressed in CHO K1 cells.
as §15, §16, §17, §7, §18, §9, §10

SSTR2 [23] = target: T13, SSTR2; test: as above; conditions: for Emax: CHO-K1, read-out: Span
Experimental: as §13, §14
and expressed in CHO K1 cells.
as §15, §16, §17, §7, §18, §9, §10

SSTR2 [24] = target: T14, SSTR2; test: as above; conditions: for Emax: CHO-K1, read-out: Span
Experimental: as §13, §14
and expressed in CHO K1 cells.
as §15, §16, §17, §7, §18, §9, §10

SSTR2 [25] = target: T15, SSTR2; test: as above; conditions: for Emax: CHO-K1, read-out: Span
Experimental: as §13, §14
and expressed in CHO K1 cells.
as §15, §16, §17, §7, §18, §9, §10

SSTR2 [26] = target: SSTR2 (Homo sapiens, UniProt P30874, Y205A); test: as above; conditions: CHO-K1, read-out: Span
Experimental: as §13, §14
and expressed in CHO K1 cells.
as §15, §16, §17, §7, §18, §9, §10

SSTR2 [27] = target: T16, SSTR2; test: as above; conditions: CHO-K1, read-out: Span
Experimental: as §13, §14
and expressed in CHO K1 cells.
as §15, §16, §17, §7, §18, §9, §10

SSTR2 [28] = target: SSTR2 (Homo sapiens, UniProt P30874, D295A); test: as above
Experimental: as §13, §14
and expressed in CHO K1 cells.
as §15, §16, §17, §7, §18, §9, §10

SSTR2 [29] = target: SSTR2 (Homo sapiens, UniProt P30874, N43A); test: as above
Experimental: as §13, §14
and expressed in CHO K1 cells.
as §15, §16, §17, §7, §18, §9, §10

SSTR2 [30] = target: SSTR2 (Homo sapiens, UniProt P30874, S42A); test: as above
Chain of SSTR2 (Homo sapiens, UniProt P30874, S42A) (P30874 whole entry S42A): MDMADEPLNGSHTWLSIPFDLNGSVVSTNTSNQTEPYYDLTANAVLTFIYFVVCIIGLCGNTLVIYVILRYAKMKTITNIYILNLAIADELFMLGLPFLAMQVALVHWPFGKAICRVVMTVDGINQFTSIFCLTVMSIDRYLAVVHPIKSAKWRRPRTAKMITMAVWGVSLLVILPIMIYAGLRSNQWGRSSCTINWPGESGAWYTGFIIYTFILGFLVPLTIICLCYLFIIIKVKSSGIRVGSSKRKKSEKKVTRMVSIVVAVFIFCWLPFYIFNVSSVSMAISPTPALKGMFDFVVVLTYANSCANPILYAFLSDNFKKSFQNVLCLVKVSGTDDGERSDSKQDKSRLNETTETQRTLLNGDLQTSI
Experimental: as §13, §14
and expressed in CHO K1 cells.
as §15, §16, §17, §7, §18, §9, §10

T10 sequence (P30874 whole entry): as the sequence (P30874 whole entry S42A) above, with A42S counted along it
Chain of SSTR2 (Homo sapiens, UniProt P30874, F275A) (P30874 whole entry F275A): as the sequence (P30874 whole entry S42A) above, with A42S, F275A counted along it
T14 sequence (P30874 whole entry Q102A): as the sequence (P30874 whole entry S42A) above, with A42S, Q102A counted along it
T13 sequence (P30874 whole entry F294A): as the sequence (P30874 whole entry S42A) above, with A42S, F294A counted along it
T11 sequence (P30874 whole entry D122A): as the sequence (P30874 whole entry S42A) above, with A42S, D122A counted along it
T15 sequence (P30874 whole entry Q126A): as the sequence (P30874 whole entry S42A) above, with A42S, Q126A counted along it
T12 sequence (P30874 whole entry F272A): as the sequence (P30874 whole entry S42A) above, with A42S, F272A counted along it
T16 sequence (P30874 whole entry Y302A): as the sequence (P30874 whole entry S42A) above, with A42S, Y302A counted along it
Chain of SSTR2 (Homo sapiens, UniProt P30874, D295A) (P30874 whole entry D295A): as the sequence (P30874 whole entry S42A) above, with A42S, D295A counted along it
Chain of SSTR2 (Homo sapiens, UniProt P30874, N43A) (P30874 whole entry N43A): as the sequence (P30874 whole entry S42A) above, with A42S, N43A counted along it
T9 sequence (P30874 whole entry Y205W): as the sequence (P30874 whole entry S42A) above, with A42S, Y205W counted along it
T8 sequence (P30874 whole entry V298A): as the sequence (P30874 whole entry S42A) above, with A42S, V298A counted along it
Chain of SSTR2 (Homo sapiens, UniProt P30874, Y205A) (P30874 whole entry Y205A): as the sequence (P30874 whole entry S42A) above, with A42S, Y205A counted along it
Chain of SSTR2 (Homo sapiens, UniProt P30874, T212A) (P30874 whole entry T212A): as the sequence (P30874 whole entry S42A) above, with A42S, T212A counted along it
T5 sequence (P30874 whole entry N276A): as the sequence (P30874 whole entry S42A) above, with A42S, N276A counted along it
T3 sequence (P30874 whole entry I284A): as the sequence (P30874 whole entry S42A) above, with A42S, I284A counted along it
T7 sequence (P30874 whole entry S192A): as the sequence (P30874 whole entry S42A) above, with A42S, S192A counted along it
Chain of SSTR2 (Homo sapiens, UniProt P30874, T194A) (P30874 whole entry T194A): as the sequence (P30874 whole entry S42A) above, with A42S, T194A counted along it
T4 sequence (P30874 whole entry K291A): as the sequence (P30874 whole entry S42A) above, with A42S, K291A counted along it
T2 sequence (P30874 whole entry F294N): as the sequence (P30874 whole entry S42A) above, with A42S, F294N counted along it
T1 sequence (P30874 whole entry F208A): as the sequence (P30874 whole entry S42A) above, with A42S, F208A counted along it
T6 sequence (P30874 whole entry P286A): as the sequence (P30874 whole entry S42A) above, with A42S, P286A counted along it

Structure (SMILES): C[C@@H](O)[C@@H]1NC(=O)[C@H](CCCCN)NC(=O)[C@@H](Cc2c[nH]c3ccccc23)NC(=O)[C@H](Cc2ccccc2)NC(=O)[C@@H](NC(=O)[C@H](N)Cc2ccccc2)CSSC[C@@H](C(=O)N[C@H](CO)[C@@H](C)O)NC1=O [Octreotide]
- Emax (SSTR2 [1]): 128 ± 8%
- Emax (SSTR2 [2]): 47 ± 9%
- Emax (SSTR2 [3]): 58 ± 8%
- Emax (SSTR2 [4]): 103 ± 8%
- Emax (SSTR2 [5]): 75 ± 9%
- Emax (SSTR2 [6]): 72 ± 8%
- Emax (SSTR2 [7]): 146 ± 13%
- Emax (SSTR2 [8]): 127 ± 4%
- Emax (SSTR2 [9]): 97 ± 10%
- Emax (SSTR2 [10]): 100 ± 4%
- Emax (SSTR2 [11]): 16 ± 4%
- Emax (SSTR2 [12]): 134 ± 17%
- Emax (SSTR2 [13]): 123 ± 10%
- Emax (SSTR2 [14]): 30 ± 5%
- Emax (SSTR2 [15]): 101 ± 7%
- Emax (SSTR2 [16]): 125 ± 7%
- Emax (SSTR2 [17]): 90 ± 10%
- Emax (SSTR2 [18]): 147 ± 12%
- Emax (SSTR2 [19]): 100 ± 7%
- Emax (SSTR2 [20]): 16 ± 7%
- Emax (SSTR2 [21]): 26 ± 6%
- Emax (SSTR2 [22]): 51 ± 4%
- Emax (SSTR2 [23]): 28 ± 9%
- Emax (SSTR2 [24]): 27 ± 4%
- Emax (SSTR2 [25]): 16 ± 8%
- Emax (SSTR2 [26]): 60 ± 5%
- Emax (SSTR2 [27]): 18 ± 7%

Structure (SMILES): CC(=O)N[C@@H](Cc1ccc([N+](=O)[O-])cc1)C(=O)N[C@@H]1CSSC[C@@H](C(=O)N[C@H](Cc2ccc(O)cc2)C(N)=O)NC(=O)[C@H]([C@@H](C)O)NC(=O)[C@H](CCCCN)NC(=O)[C@@H](Cc2c[nH]c3ccccc23)NC(=O)[C@H](Cc2ccc(O)cc2)NC1=O [CYN 154806]
- IC50 (SSTR2 [19]): 4.37 nM
- Emax (SSTR2 [19]): 100 ± 6%
- Emax (SSTR2 [20]): 20 ± 2%
- IC50 (SSTR2 [28]): 3.55 nM
- Emax (SSTR2 [28]; CHO-K1, read-out: Span): 62 ± 6%
- IC50 (SSTR2 [21]): 23.4 nM
- Emax (SSTR2 [21]): 21 ± 6%
- IC50 (SSTR2 [22]): 21.9 nM
- Emax (SSTR2 [22]): 69 ± 7%
- IC50 (SSTR2 [23]): 21.9 nM
- Emax (SSTR2 [23]): 36 ± 6%
- IC50 (SSTR2 [29]): 8.13 nM
- Emax (SSTR2 [29]; CHO-K1, read-out: Span): 96 ± 8%
- IC50 (SSTR2 [24]): 20.4 nM
- Emax (SSTR2 [24]): 24 ± 5%
- IC50 (SSTR2 [25]): 135 nM
- Emax (SSTR2 [25]): 25 ± 4%
- IC50 (SSTR2 [30]): 2.75 nM
- Emax (SSTR2 [30]; CHO-K1, read-out: Span): 145 ± 9%
- Emax (SSTR2 [27]): 15 ± 5%
